One test concerns the target human A2B receptors (Homo sapiens (Human), UniProt P29275). Nature of the test: A2B antagonism in cAMP cell-based assay (LANCE cAMP, HEK293). The following applies: HEK293 cells expressing human A2B receptor. In a few lines:
(§1)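 HEK293 cells expressing human A2A or A2B, in HBSS/5 mM HEPES/200 nM rolipram, were preincubated with compound (0.5–10,000 nM, 0.25% DMSO) 30 min at 37° C. Adenosine was then added from 300 nM (A2A) or 600 nM (A2B) solution for 30 min.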

A further test addresses human A2A receptors (Homo sapiens (Human), UniProt P29274). As to the kind of experiment: A2A antagonism in cAMP cell-based assay (LANCE cAMP, HEK293). The following applies: HEK293 cells expressing human A2A receptor. In a few lines: as §1

Chain of human A2A receptors (P29274 whole entry): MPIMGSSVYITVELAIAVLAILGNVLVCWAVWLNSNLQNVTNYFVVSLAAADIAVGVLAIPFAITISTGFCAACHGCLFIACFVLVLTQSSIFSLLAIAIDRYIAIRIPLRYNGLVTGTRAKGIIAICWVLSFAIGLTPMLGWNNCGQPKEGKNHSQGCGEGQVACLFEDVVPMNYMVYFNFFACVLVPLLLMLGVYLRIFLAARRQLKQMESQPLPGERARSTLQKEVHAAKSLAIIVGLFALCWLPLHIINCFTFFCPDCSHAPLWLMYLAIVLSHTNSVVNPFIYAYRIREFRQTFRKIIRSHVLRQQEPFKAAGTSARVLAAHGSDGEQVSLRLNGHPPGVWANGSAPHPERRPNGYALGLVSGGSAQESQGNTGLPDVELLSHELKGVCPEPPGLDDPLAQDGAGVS
Chain of human A2B receptors (P29275 whole entry): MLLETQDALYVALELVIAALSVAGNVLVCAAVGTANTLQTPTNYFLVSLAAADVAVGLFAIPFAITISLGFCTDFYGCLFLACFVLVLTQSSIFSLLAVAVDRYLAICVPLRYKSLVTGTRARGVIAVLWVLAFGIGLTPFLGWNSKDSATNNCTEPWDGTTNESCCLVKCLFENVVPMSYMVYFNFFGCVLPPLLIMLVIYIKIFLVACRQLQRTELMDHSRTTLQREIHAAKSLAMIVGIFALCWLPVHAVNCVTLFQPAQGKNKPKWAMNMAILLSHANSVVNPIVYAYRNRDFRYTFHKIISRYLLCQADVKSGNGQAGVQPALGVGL

What is called IC50 is the point on the concentration scale where inhibition reaches its midpoint. A high value points to weaker potency in that assay. On to `CC1CCC(c2nc3c4cc(F)cc(F)c4nc(N)n3n2)CN1c1cnn(CC(C)(CO)CO)c1` (single isomer, unassigned) [Example 260], for which the IC50 on human A2B receptors stood at 10 nM; at human A2A receptors it was 1.7 nM.

Regarding `CC1CCC(c2nc3c4cc(F)cc(F)c4nc(N)n3n2)CN1c1cnn(CC(C)(CO)CO)c1` (single isomer, unassigned) [Example 261], the IC50 at human A2B receptors stood at 1470 nM; at human A2A receptors, 86.6 nM.

With `COc1cc2nc(N)n3nc(C4CCC(C)N(c5cnn(CC(C)(C)N)c5)C4)nc3c2cc1F` (single isomer, unassigned) [Example 262, 2-((3R,6S or 3S,6R)-1-(1-(2-amino-2-methylpropyl)-1H-pyrazol-4-yl)-6-methylpiperidin-3-yl)-9-fluoro-8-methoxy-[1,2,4]triazolo[1,5-c]quinazolin-5-amine], the IC50 stood at 23.9 nM at human A2B receptors and 2.2 nM against human A2A receptors.

As for `COc1cc2nc(N)n3nc(C4CCC(C)N(c5cnn(CC(C)(C)N)c5)C4)nc3c2cc1F` (single isomer, unassigned) [Example 263, 2-((3S,6R or 3R,6S)-1-(1-(2-amino-2-methylpropyl)-1H-pyrazol-4-yl)-6-methylpiperidin-3-yl)-9-fluoro-8-methoxy-[1,2,4]triazolo[1,5-c]quinazolin-5-amine], the IC50 was 511 nM against human A2B receptors and 26 nM at human A2A receptors.

With `COc1cc2nc(N)n3nc(C4CCC(C)N(c5cnn(C(C)(C)C(C)O)c5)C4)nc3c2cc1F` (single isomer, unassigned) [Example 264, (R or S)-3-(4-((2S,5R or 2R,5S)-5-(5-amino-9-fluoro-8-methoxy-[1,2,4]triazolo[1,5-c]quinazolin-2-yl)-2-methylpiperidin-1-yl)-1H-pyrazol-1-yl)-3-methylbutan-2-ol], the results for the IC50 at human A2B receptors and at human A2A receptors were 14.3 nM and 3 nM, respectively.

In the case of `COc1cc2nc(N)n3nc(C4CCC(C)N(c5cnn(C(C)(C)C(C)O)c5)C4)nc3c2cc1F` (single isomer, unassigned) [Example 265, (S or R)-3-(4-((2S,5R or 2R,5S)-5-(5-amino-9-fluoro-8-methoxy-[1,2,4]triazolo[1,5-c]quinazolin-2-yl)-2-methylpiperidin-1-yl)-1H-pyrazol-1-yl)-3-methylbutan-2-ol], the figures for the IC50 against human A2B receptors and at human A2A receptors were 4.5 nM and 1.3 nM, respectively.

`COc1cc2nc(N)n3nc(C4CCC(C)N(c5cnn(C(C)(C)C(C)O)c5)C4)nc3c2cc1F` (single isomer, unassigned) [Example 266, (R or S)-3-(4-((2R,5S or 2S,5R)-5-(5-amino-9-fluoro-8-methoxy-[1,2,4]triazolo[1,5-c]quinazolin-2-yl)-2-methylpiperidin-1-yl)-1H-pyrazol-1-yl)-3-methylbutan-2-ol]: the IC50 against human A2B receptors came out at 580 nM; on human A2A receptors, 64.2 nM.

On to `COc1cc2nc(N)n3nc(C4CCC(C)N(c5cnn(C(C)(C)C(C)O)c5)C4)nc3c2cc1F` (single isomer, unassigned) [Example 267, (S or R)-3-(4-((2R,5S or 2S,5R)-5-(5-amino-9-fluoro-8-methoxy-[1,2,4]triazolo[1,5-c]quinazolin-2-yl)-2-methylpiperidin-1-yl)-1H-pyrazol-1-yl)-3-methylbutan-2-ol], for which the values for the IC50 on human A2B receptors and on human A2A receptors were 1210 nM and 175 nM, respectively.

On to `COc1cc(F)cc2c1nc(N)n1nc(C3CCC(C)N(c4cnn(C(C)(C)C(C)O)c4)C3)nc21` (single isomer, unassigned) [Example 268, (R or S)-3-(4-((2S,5R or 2R,5S)-5-(5-amino-9-fluoro-7-methoxy-[1,2,4]triazolo[1,5-c]quinazolin-2-yl)-2-methylpiperidin-1-yl)-1H-pyrazol-1-yl)-3-methylbutan-2-ol], for which the IC50 against human A2B receptors amounted to 4.7 nM; against human A2A receptors it was 0.7 nM.

Regarding `COc1cc(F)cc2c1nc(N)n1nc(C3CCC(C)N(c4cnn(C(C)(C)C(C)O)c4)C3)nc21` (single isomer, unassigned) [Example 269, (S or R)-3-(4-((2S,5R or 2R,5S)-5-(5-amino-9-fluoro-7-methoxy-[1,2,4]triazolo[1,5-c]quinazolin-2-yl)-2-methylpiperidin-1-yl)-1H-pyrazol-1-yl)-3-methylbutan-2-ol], the figures for the IC50 on human A2B receptors and against human A2A receptors were 6.4 nM and 1.2 nM, respectively.

Consider `COc1cc(F)cc2c1nc(N)n1nc(C3CCC(C)N(c4cnn(C(C)(C)C(C)O)c4)C3)nc21` (single isomer, unassigned) [Example 270, (R or S)-3-(4-((2R,5S or 2S,5R)-5-(5-amino-9-fluoro-7-methoxy-[1,2,4]triazolo[1,5-c]quinazolin-2-yl)-2-methylpiperidin-1-yl)-1H-pyrazol-1-yl)-3-methylbutan-2-ol], for which the IC50 amounted to 30.3 nM on human A2B receptors and 5.2 nM against human A2A receptors.

In the case of `COc1cc(F)cc2c1nc(N)n1nc(C3CCC(C)N(c4cnn(C(C)(C)C(C)O)c4)C3)nc21` (single isomer, unassigned) [Example 271, (S or R)-3-(4-((2R,5S or 2S,5R)-5-(5-amino-9-fluoro-7-methoxy-[1,2,4]triazolo[1,5-c]quinazolin-2-yl)-2-methylpiperidin-1-yl)-1H-pyrazol-1-yl)-3-methylbutan-2-ol], the IC50 is 242 nM against human A2B receptors and 21.4 nM against human A2A receptors.

For the compound `COc1cc2nc(N)n3nc(C4CCC(C)N(c5cnn(CC6(O)CC6)c5)C4)nc3c2cc1F` (single isomer, unassigned) [Example 272, 1-((4-((2S,5R or 2R,5S)-5-(5-amino-9-fluoro-8-methoxy-[1,2,4]triazolo[1,5-c]quinazolin-2-yl)-2-methylpiperidin-1-yl)-1H-pyrazol-1-yl)methyl)cyclopropan-1-ol], the figures for the IC50 against human A2B receptors and against human A2A receptors were 5800 nM and 43.6 nM, respectively.

In the case of `COc1cc2nc(N)n3nc(C4CCC(C)N(c5cnn(CC6(O)CC6)c5)C4)nc3c2cc1F` (single isomer, unassigned) [Example 273, 1-((4-((2R,5S or 2S,5R)-5-(5-amino-9-fluoro-8-methoxy-[1,2,4]triazolo[1,5-c]quinazolin-2-yl)-2-methylpiperidin-1-yl)-1H-pyrazol-1-yl)methyl)cyclopropan-1-ol], the IC50 was determined as 26.7 nM against human A2B receptors and 1.2 nM against human A2A receptors.

Regarding `COc1cc2nc(N)n3nc(C4CC(C)CN(c5cnn(CC(C)(C)O)c5C)C4)nc3c2cc1F` (single isomer, unassigned) [Example 274, 1-((4-((3R,5S or 3S,5R)-5-(5-amino-9-fluoro-8-methoxy-[1,2,4]triazolo[1,5-c]quinazolin-2-yl)-5-methylpiperidin-1-yl)-5-methyl-1H-pyrazol-1-yl)-2-methylpropan-2-ol], the IC50 was 70.5 nM against human A2B receptors and 0.7 nM on human A2A receptors.

Regarding `COc1cc2nc(N)n3nc(C4CC(C)CN(c5cnn(CC(C)(C)O)c5C)C4)nc3c2cc1F` (single isomer, unassigned) [Example 275, 1-((4-((3S,5R or 3R,5S)-5-(5-amino-9-fluoro-8-methoxy-[1,2,4]triazolo[1,5-c]quinazolin-2-yl)-5-methylpiperidin-1-yl)-5-methyl-1H-pyrazol-1-yl)-2-methylpropan-2-ol], the IC50 against human A2B receptors was 2470 nM; on human A2A receptors, 15.6 nM.

Consider `COc1cc2nc(N)n3nc([C@@H]4CCCN(c5cnn(C(C)(C)CO)c5)C4)nc3c2cc1F` [Example 151, (R)-2-(4-(3-(5-amino-9-fluoro-8-methoxy-[1,2,4]triazolo[1,5-c]quinazolin-2-yl)piperidin-1-yl)-1H-pyrazol-1-yl)-2-methylpropan-1-ol], for which the IC50 against human A2B receptors was 56.9 nM; at human A2A receptors, 3.8 nM.

As for `COc1cc2nc(N)n3nc([C@@H]4CCCN(c5cnn(CCC(C)(C)O)c5)C4)nc3c2cc1F` [Example 152, (R)-4-(4-(3-(5-amino-9-fluoro-8-methoxy-[1,2,4]triazolo[1,5-c]quinazolin-2-yl)piperidin-1-yl)-1H-pyrazol-1-yl)-2-methylbutan-2-ol], the IC50 against human A2B receptors was found to be 371 nM; at human A2A receptors, 5.9 nM.

Regarding `CC(C)(O)Cn1cc(N2CCC[C@@H](c3nc4c5cc(F)c(OC(F)F)cc5nc(N)n4n3)C2)cn1` [Example 153, (R)-1-(4-(3-(5-amino-8-(difluoromethoxy)-9-fluoro-[1,2,4]triazolo[l,5-c]quinazolin-2-yl)piperidin-l-yl)-1H-pyrazol-1-yl)-2-methylpropan-2-ol], the figures for the IC50 against human A2B receptors and against human A2A receptors were 720 nM and 7.4 nM, respectively.

Consider `Cc1nn(CC(C)(C)O)cc1N1CCC[C@@H](c2nc3c4cc(F)c(OC(F)F)cc4nc(N)n3n2)C1` [Example 154, (R)-1-(4-(3-(5-amino-8-(difluoromethoxy)-9-fluoro-[1,2,4]triazolo[l,5-c]quinazolin-2-yl)piperidin-l-yl)-3-methyl-1H-pyrazol-1-yl)-2-methylpropan-2-ol], for which the IC50 on human A2B receptors amounted to 974 nM; on human A2A receptors, 1.2 nM.

As to “(R or S)-1-(4-((2S,5R or 2R5S)-5-(5-amino-9-fluoro- 8-methoxy-[1,2,4]triazolo[1,5-c]quinazolin-2-yl)-2- methylpiperidin-1-yl)-1H-pyrazol-1-yl)propan-2-ol [Example 240]”, the IC50 against human A2B receptors came to 22.6 nM; at human A2A receptors, 1.2 nM.

In the case of “(S or R)-1-(4-((2S,5R or 2R5S)-5-(5-amino-9-fluoro- 8-methoxy-[1,2,4]triazolo[1,5-c]quinazolin-2-yl)-2- methylpiperidin-1-yl)-1H-pyrazol-1-yl)propan-2-ol [Example 241]”, the IC50 at human A2B receptors came out at 21.7 nM; against human A2A receptors, 1.3 nM.

Source of the values: patent US11312719B2, “9-substituted amino triazolo quinazoline derivatives as adenosine receptor antagonists, pharmaceutical compositions and their use” (Merck Sharp & Dohme Corp., priority 2018, dated 2022).
